Changes are numbered by the printed parent chain.
How the values were obtained:
Assay type in all cases: cell-based
α-Gal A mutant form N34H = biological target: T1, α-Gal A mutant form N34H (Homo sapiens, UniProt P06280, N34H); assay: α-Gal A activity in lysates of transfected HEK-293 cells, N34H
T1 construct: expressed in transfected cells; host or cells: HEK-293
T1 sequence (P06280 32-429 N34H): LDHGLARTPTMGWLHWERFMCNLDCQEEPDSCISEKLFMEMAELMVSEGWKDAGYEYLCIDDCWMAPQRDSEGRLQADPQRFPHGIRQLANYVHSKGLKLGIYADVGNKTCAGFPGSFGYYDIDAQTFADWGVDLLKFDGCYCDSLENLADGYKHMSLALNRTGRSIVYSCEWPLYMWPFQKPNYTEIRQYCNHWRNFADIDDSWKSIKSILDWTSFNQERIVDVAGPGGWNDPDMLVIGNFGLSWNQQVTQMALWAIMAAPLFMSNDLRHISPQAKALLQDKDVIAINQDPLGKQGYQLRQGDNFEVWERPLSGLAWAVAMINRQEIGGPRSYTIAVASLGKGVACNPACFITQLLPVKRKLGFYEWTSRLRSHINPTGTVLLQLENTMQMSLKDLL
Protocol: (§1) Baseline and 10 μM migalastat α-Gal A activity: Differences in the α-Gal A activity between lysates incubated in the absence and presence of 10 μM migalastat were determined using a one-tailed, Mann Whitney U test; an increase at 10 μM migalastat with a p<0.05 was considered significant.
(§2) 10 μM migalastat α-Gal A activity (% WT)=(α-Gal A activity in mutant transfected cell lysates incubated with 10 μM migalastat÷α-Gal A activity in wild-type transfected cell lysates without migalastat)*100.
(§3) Absolute increase (% WT)=is the 10 μM migalastat α-Gal A activity (% WT) minus the baseline α-Gal A activity (% WT).
(§4) Relative increase is the 10 μM migalastat α-Gal A activity in mutant transfected cell lysates÷baseline α-Gal A activity in mutant transfected cell lysates incubated without migalastat.

[1] = biological target: T2, α-Gal A mutant form Q250K (Homo sapiens, UniProt P06280, Q250K); assay: α-Gal A activity in lysates of transfected HEK-293 cells, Q250K
T2 construct: expressed in transfected cells; host or cells: HEK-293
T2 sequence (P06280 32-429 Q250K): T1 sequence (P06280 32-429 N34H) with H3N, Q219K
Protocol: as §1, §2, §3, §4

[2] = biological target: T3, α-Gal A mutant form P259Q (Homo sapiens, UniProt P06280, P259Q); assay: α-Gal A activity in lysates of transfected HEK-293 cells, P259Q
T3 construct: expressed in transfected cells; host or cells: HEK-293
T3 sequence (P06280 32-429 P259Q): T1 sequence (P06280 32-429 N34H) with H3N, P228Q
Protocol: as §1, §2, §3, §4

[3] = biological target: T4, α-Gal A mutant form D155E (Homo sapiens, UniProt P06280, D155E); assay: α-Gal A activity in lysates of transfected HEK-293 cells, D155E
T4 construct: expressed in transfected cells; host or cells: HEK-293
T4 sequence (P06280 32-429 D155E): T1 sequence (P06280 32-429 N34H) with H3N, D124E
Protocol: as §1, §2, §3, §4

[4] = biological target: T5, α-Gal A mutant form L189F (Homo sapiens, UniProt P06280, L189F); assay: α-Gal A activity in lysates of transfected HEK-293 cells, L189F
T5 construct: expressed in transfected cells; host or cells: HEK-293
T5 sequence (P06280 32-429 L189F): T1 sequence (P06280 32-429 N34H) with H3N, L158F
Protocol: as §1, §2, §3, §4

[5] = HEK-293 lysates, 10 μM migalastat, 5 days, mean ± SEM
[6] = 10 μM migalastat minus baseline
[7] = 10 μM migalastat ÷ baseline activity

OC[C@H]1NC[C@H](O)[C@@H](O)[C@H]1O [migalastat, (2R,3S,4R,5S)-2-(hydroxymethyl) piperdine-3,4,5-triol]
Absolute increase (% WT) (α-Gal A mutant form N34H; 10 μM migalastat minus baseline (baseline BLD)): 3.6 % WT
10 μM migalastat α-Gal A activity (% WT) (α-Gal A mutant form N34H; [5]): 3.6 ± 0.2 % WT
10 μM migalastat α-Gal A activity (α-Gal A mutant form N34H; HEK-293 lysates, 10 μM migalastat, 5 days, mean ± SEM, baseline BLD): 1414 ± 100 nmol/mg/h
Absolute increase (% WT) [1, 6]: 25.5 % WT
Relative increase [1, 7]: 2.58
10 nM migalastat α-Gal A activity ([1]; HEK-293 lysates, 10 nM migalastat as printed, 5 days, mean ± SEM): 11325 ± 1111 nmol/mg/h
10 μM migalastat α-Gal A activity (% WT) [1, 5]: 41.6 ± 3.1 % WT
Absolute increase (% WT) [2, 6]: 36.1 % WT
Relative increase [2, 7]: 1.90
10 μM migalastat α-Gal A activity [2, 5]: 25935 ± 2020 nmol/mg/h
10 μM migalastat α-Gal A activity (% WT) [2, 5]: 73.6 ± 5.0 % WT
Absolute increase (% WT) [3, 6]: 14.5 % WT
Relative increase [3, 7]: 3.81
10 μM migalastat α-Gal A activity [3, 5]: 6619 ± 337 nmol/mg/h
10 μM migalastat α-Gal A activity (% WT) [3, 5]: 19.8 ± 1.0 % WT
Absolute increase (% WT) [4, 6]: 15.3 % WT
Relative increase [4, 7]: 1.22
10 μM migalastat α-Gal A activity [4, 5]: 27388 ± 1605 nmol/mg/h
10 μM migalastat α-Gal A activity (% WT) [4, 5]: 84.6 ± 3.8 % WT

— patent publication US12594268B2, “Methods of treating Fabry disease in patients having a mutation in the GLA gene” (Amicus Therapeutics, Inc., priority 2018, dated 2026)
